Reference: patent publication US20210221794A1, “ISATIN DERIVATIVES” (KING SAUD UNIVERSITY, priority 2020, published 2021)

Experiments:
Assay type in all cases: cell-based, Human
Details in all cases: concentration 10-M [sic], 2 days after addition
[1] = system: Ovarian Cancer cells (IGROV1); experiment: NCI-60 one-dose screen, Ovarian Cancer cells (IGROV1)
Procedure: (§1) Anticancer activities of the exemplary isatin derivatives were tested by the NIH National Cancer Institutes (NCI), with results summarized in FIGS. 2A-2B. The anticancer activity was tested by NCI, division of cancer treatment and diagnosis, according to the NCI-60 Human Tumor Cell Lines Screen, one-dose screen (https://dtp.cancer.gov/discovery_development/nci-60/methodology.htm). This screening allows for qualified synthesized chemicals to be subjected to an anticancer test against 60 different cancer cell lines. Briefly, exemplary T1 or T2 was dissolved in DMSO:Glycerol, 9:1, at 4 mmol and kept frozen prior to use. For inoculation, a 96 well microtiter was used for the study of different cell lines. Based on the doubling time for each cell line, the well density varied. The plates were incubated at 37° C., 5% CO2, 95% air and 100% relative humidity for 1 day. The exemplary T1 or T2 or a control were added to the plates at a concentration of 10-M. After 2 more days, the plates were fixed and stained to identify growth inhibition relative to cells without drug treatment. Anti-proliferative activity was determined based on careful analysis of historical DTP screening data. Cell death and net growth inhibition were determined based on a time zero control. A value of 100 indicates no growth inhibition. A value of 40 indicates 60% growth inhibition. […]

[2] = system: Renal Cancer cells (UO-31); experiment: NCI-60 one-dose screen, Renal Cancer cells (UO-31)
Procedure: as §1

[3] = system: Breast Cancer cells (HS 578T); experiment: NCI-60 one-dose screen, Breast Cancer cells (HS 578T)
Procedure: as §1

[4] = system: Non-Small Cell Lung Cancer cells (EKVX); experiment: NCI-60 one-dose screen, Non-Small Cell Lung Cancer cells (EKVX)
Procedure: as §1

[5] = system: Renal Cancer cells (CAKI-1); experiment: NCI-60 one-dose screen, Renal Cancer cells (CAKI-1)
Procedure: as §1

[6] = system: Colon Cancer cells (KM12); experiment: NCI-60 one-dose screen, Colon Cancer cells (KM12)
Procedure: as §1

SMILES | reduction compared to control (anticancer activity) [1] [%] | reduction compared to control (anticancer activity) [2] [%] | reduction compared to control (anticancer activity) [3] [%] | reduction compared to control (anticancer activity) [4] [%] | reduction compared to control (anticancer activity) [5] [%] | reduction compared to control (anticancer activity) [6] [%]
O=C1Nc2ccccc2C1=NN=Cc1c[nH]c2ccccc12 [T1] | ~65 | ~74 | ~85 | ~79 | ~83 | ~72
O=C1Nc2ccc(Cl)cc2C1=NN=Cc1c[nH]c2ccccc12 [T2] | – | ~59 | ~78 | ~77 | ~71 | –
